{"source": "patent US11407757B2", "about": "“Heterocycle compounds as Tyro3, Axl and MerTK (TAM) family of receptor tyrosine kinase inhibitors” (Development Center for Biotechnology, priority 2017, dated 2022)", "data": [{"molecular_target": "Axl kinase (Homo sapiens (Human), UniProt P30530)", "sequence (P30530 26-894)": "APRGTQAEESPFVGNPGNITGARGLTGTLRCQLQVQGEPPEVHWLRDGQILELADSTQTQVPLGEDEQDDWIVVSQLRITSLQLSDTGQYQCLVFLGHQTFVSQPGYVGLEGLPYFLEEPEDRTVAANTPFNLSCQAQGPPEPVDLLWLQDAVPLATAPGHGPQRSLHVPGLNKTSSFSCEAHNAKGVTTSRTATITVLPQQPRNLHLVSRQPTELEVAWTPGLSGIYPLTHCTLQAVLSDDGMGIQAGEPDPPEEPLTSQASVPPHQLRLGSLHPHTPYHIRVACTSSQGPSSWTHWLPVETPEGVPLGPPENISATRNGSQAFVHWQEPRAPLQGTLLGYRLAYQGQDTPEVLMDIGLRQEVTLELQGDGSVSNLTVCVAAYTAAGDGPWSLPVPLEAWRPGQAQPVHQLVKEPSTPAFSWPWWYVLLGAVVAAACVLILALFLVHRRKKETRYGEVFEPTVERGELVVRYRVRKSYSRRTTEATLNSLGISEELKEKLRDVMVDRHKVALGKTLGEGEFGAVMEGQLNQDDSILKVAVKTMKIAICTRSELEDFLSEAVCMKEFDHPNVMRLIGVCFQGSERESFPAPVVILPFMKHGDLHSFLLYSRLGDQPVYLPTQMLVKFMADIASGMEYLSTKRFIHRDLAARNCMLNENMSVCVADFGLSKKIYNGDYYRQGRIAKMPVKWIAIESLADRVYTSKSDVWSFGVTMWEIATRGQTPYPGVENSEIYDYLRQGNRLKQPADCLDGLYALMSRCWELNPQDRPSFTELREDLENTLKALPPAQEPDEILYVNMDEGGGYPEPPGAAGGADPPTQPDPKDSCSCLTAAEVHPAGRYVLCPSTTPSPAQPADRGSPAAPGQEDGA", "assay": "Axl kinase assay (AlphaScreen)", "type": "biochemical", "conditions": "activity level class", "units": {"IC50": "nM"}, "values": [{"smiles": "CCN1CCN(Cc2ccc(Nc3nc(OCCOC)c4c(-c5ccc(OCc6ncccn6)cc5F)c[nH]c4n3)cc2)CC1", "note": "[Compound 39, N-(4-((4-ethylpiperazin-1-yl)methyl)phenyl)-5-(2-fluoro-4-(pyrimidin-2-ylmethoxy)phenyl)-4-(2-methoxyethoxy)-7H-pyrrolo[2,3-d]pyrimidin-2-amine]", "IC50": "< 30"}, {"smiles": "CCN1CCN(Cc2ccc(Nc3nc(OC)c4c(-c5ccc(F)cc5F)c[nH]c4n3)cc2)CC1", "note": "[Compound 45, 5-(2,4-difluorophenyl)-N-(4-((4-ethylpiperazin-1-yl)methyl)phenyl)-4-methoxy-7H-pyrrolo [2,3-d]pyrimidin-2-amine]", "IC50": "< 30"}, {"smiles": "CCN1CCN(Cc2ccc(Nc3nc(OC)c4c(-c5ccc(O)cc5)c[nH]c4n3)cc2)CC1", "note": "[Compound 48, 4-(2-((4-((4-ethylpiperazin-1-yl)methyl)phenyl)amino)-4-methoxy-7H-pyrrolo[2,3-d]pyrimidin-5-yl)phenol]", "IC50": "< 30"}, {"smiles": "COCCOc1nc(Nc2ccc(CN3CCN(C)CC3)cc2)nc2[nH]cc(-c3ccc(F)c(Cl)c3)c12", "note": "[Compound 50, 5-(3-chloro-4-fluorophenyl)-4-(2-methoxyethoxy)-N-(4-((4-methylpiperazin-1-yl)methyl)phenyl)-7H-pyrrolo[2,3-d]pyrimidin-2-amine]", "IC50": "< 30"}, {"smiles": "CN1CCN(Cc2ccc(Nc3nc(OCC4CCCO4)c4c(-c5ccc(F)cc5F)c[nH]c4n3)cc2)CC1", "note": "(centres unmarked) [Compound 52, 5-(2,4-difluorophenyl)-N-(4-((4-methylpiperazin-1-yl)methyl)phenyl)-4-((tetrahydrofuran-2-yl)methoxy)-7H-pyrrolo[2,3-d] pyrimidin-2-amine]", "IC50": "< 30"}, {"smiles": "COCCOc1nc(Nc2ccc(CN3CCN(C)CC3)cc2)nc2[nH]cc(-c3ccc(F)cc3F)c12", "note": "[Compound 53, 5-(2,4-difluorophenyl)-4-(2-methoxyethoxy)-N-(4-((4-methylpiperazin-1-yl)methyl)phenyl)-7H-pyrrolo[2,3-d] pyrimidin-2-amine]", "IC50": "< 30"}, {"smiles": "CCNc1nc(Nc2ccc(CN3CCN(C)CC3)cc2)nc2[nH]cc(-c3ccc(F)cc3F)c12", "note": "[Compound 54, 5-(2,4-difluorophenyl)-N4-ethyl-N2-(4-((4-methylpiperazin-1-yl)methyl)phenyl)-7H-pyrrolo[2,3-d] pyrimidine-2,4-diamine]", "IC50": "< 30"}, {"smiles": "CN1CCN(Cc2ccc(Nc3nc(OC4CCCC4)c4c(-c5ccc(F)cc5F)c[nH]c4n3)cc2)CC1", "note": "[Compound 55, 4-(cyclopentyloxy)-5-(2,4-difluorophenyl)-N-(4-((4-methylpiperazin-1-yl)methyl)phenyl)-7H-pyrrolo[2,3-d]pyrimidin-2-amine]", "IC50": "< 30"}, {"smiles": "CCOc1nc(Nc2ccc(CN3CCN(C)CC3)cc2)nc2[nH]cc(-c3ccc(F)cc3F)c12", "note": "[Compound 59, 5-(2,4-difluorophenyl)-4-ethoxy-N-(4-((4-methylpiperazin-1-yl)methyl)phenyl)-7H-pyrrolo[2,3-d] pyrimidin-2-amine]", "IC50": "< 30"}, {"smiles": "COCC(C)Oc1nc(Nc2ccc(CN3CCN(C)CC3)cc2)nc2[nH]cc(-c3ccc(F)cc3F)c12", "note": "(centres unmarked) [Compound 63, 5-(2,4-difluorophenyl)-4-((1-methoxypropan-2-yl)oxy)-N-(4-((4-methylpiperazin-1-yl)methyl)phenyl)-7H-pyrrolo[2,3-d]pyrimidin-2-amine]", "IC50": "< 30"}, {"smiles": "COCCOc1nc(Nc2ccc(CN3CCN(C)CC3)cc2)nc2[nH]cc(-c3ccc4nc(C)oc4c3)c12", "note": "[Compound 64, 4-(2-methoxyethoxy)-5-(2-methylbenzo[d]oxazol-6-yl)-N-(4-((4-methylpiperazin-1-yl)methyl)phenyl)-7H-pyrrolo[2,3-d] pyrimidin-2-amine]", "IC50": "< 30"}, {"smiles": "COCCOc1nc(Nc2ccc(CN3CCN(C)CC3)cc2)nc2[nH]cc(-c3ccc(OCn4ccccc4=O)cc3F)c12", "note": "[Compound 68, 1-((3-fluoro-4-(4-(2-methoxyethoxy)-2-((4-((4-methylpiperazin-1-yl)methyl)phenyl)amino)-7H-pyrrolo[2,3-d]pyrimidin-5-yl)phenoxy)methyl) pyridin-2(1H)-one]", "IC50": "< 30"}, {"smiles": "CC(C)Oc1nc(Nc2ccc(CN3CCN(C)CC3)cc2)nc2[nH]cc(-c3ccc(F)cc3F)c12", "note": "[Compound 69, 5-(2,4-difluorophenyl)-4-isopropoxy-N-(4-((4-methylpiperazin-1-yl)methyl)phenyl)-7H-pyrrolo[2,3-d]pyrimidin-2-amine]", "IC50": "< 30"}, {"smiles": "CN1CCN(Cc2ccc(Nc3nc(NC4CCOCC4)c4c(-c5ccc(F)cc5F)c[nH]c4n3)cc2)CC1", "note": "[Compound 75, 5-(2,4-difluorophenyl)-N2-(4-((4-methylpiperazin-1-yl)methyl)phenyl)-N4-(tetrahydro-2H-pyran-4-yl)-7H-pyrrolo[2,3-d]pyrimidine-2,4-diamine]", "IC50": "< 30"}, {"smiles": "CN1CCN(Cc2ccc(Nc3nc(OCC4CCCO4)c4c(-c5ccc(F)c(Cl)c5)c[nH]c4n3)cc2)CC1", "note": "(centres unmarked) [Compound 77, 5-(3-chloro-4-fluorophenyl)-N-(4-((4-methylpiperazin-1-yl)methyl)phenyl)-4-((tetrahydrofuran-2-yl)methoxy)-7H-pyrrolo[2,3-d]pyrimidin-2-amine]", "IC50": "< 30"}, {"smiles": "COCCOc1nc(Nc2ccc(CN3CCN(C)CC3)cc2)nc2[nH]cc(-c3ccc(S(=O)(=O)N(C)C)cc3)c12", "note": "[Compound 79, 4-(4-(2-methoxyethoxy)-2-((4-((4-methylpiperazin-1-yl)methyl)phenyl)amino)-7H-pyrrolo[2,3-d]pyrimidin-5-yl)-N,N-dimethylbenzene-sulfonamide]", "IC50": "< 30"}, {"smiles": "COCCOc1nc(Nc2ccc(CN(C)C)cc2)nc2[nH]cc(-c3ccc(F)cc3F)c12", "note": "[Compound 80, 5-(2,4-difluorophenyl)-N-(4-((dimethylamino)methyl)phenyl)-4-(2-methoxyethoxy)-7H-pyrrolo[2,3-d]pyrimidin-2-amine]", "IC50": "< 30"}, {"smiles": "COCCOc1nc(Nc2ccc(CN3CCN(C)CC3)cc2)nc2[nH]cc(-c3ccc(F)cc3)c12", "note": "[Compound 85, 5-(4-fluorophenyl)-4-(2-methoxyethoxy)-N-(4-((4-methylpiperazin-1-yl)methyl)phenyl)-7H-pyrrolo[2,3-d]pyrimidin-2-amine]", "IC50": "< 30"}, {"smiles": "COCCOc1nc(Nc2ccc(CN3CCN(C)CC3)cc2)nc2[nH]cc(-c3ccc(S(=O)(=O)N(C)C)cc3F)c12", "note": "[Compound 91, 3-fluoro-4-(4-(2-methoxyethoxy)-2-((4-((4-methylpiperazin-1-yl)methyl)phenyl)amino)-7H-pyrrolo[2,3-d]pyrimidin-5-yl)-N,N-dimethylbenzene-sulfonamide]", "IC50": "< 30"}, {"smiles": "COCCOc1nc(Nc2ccc(CN3CCN(C)CC3)cc2)nc2[nH]cc(-c3ccc(OCc4ccccn4)cc3F)c12", "note": "[Compound 92, 5-(2-fluoro-4-(pyridin-2-ylmethoxy)phenyl)-4-(2-methoxyethoxy)-N-(4-((4-methylpiperazin-1-yl)methyl)phenyl)-7H-pyrrolo[2,3-d]pyrimidin-2-amine]", "IC50": "< 30"}, {"smiles": "COCCOc1nc(Nc2ccc(CN3CCN(C)CC3)cc2)nc2[nH]cc(-c3ccc4c(cnn4C)c3)c12", "note": "[Compound 97, 4-(2-methoxyethoxy)-5-(1-methyl-7H-indazol-5-yl)-N-(4-((4-methylpiperazin-1-yl)methyl)phenyl)-7H-pyrrolo[2,3-d]pyrimidin-2-amine]", "IC50": "< 30"}, {"smiles": "COCCOc1nc(Nc2ccc(CN3CCN(C)CC3)cc2)nc2[nH]cc(-c3ccc(OCc4cccc(C)n4)cc3F)c12", "note": "[Compound 103, 5-(2-fluoro-4-((6-methylpyridin-2-yl)methoxy)phenyl)-4-(2-methoxyethoxy)-N-(4-((4-methylpiperazin-1-yl)methyl)phenyl)-7H-pyrrolo[2,3-d]pyrimidin-2-amine]", "IC50": "< 30"}, {"smiles": "COCCOc1nc(Nc2ccc(CN3CCN(C)CC3)cc2)nc2[nH]cc(-c3ccc(OCc4cccc(F)n4)cc3F)c12", "note": "[Compound 104, 5-(2-fluoro-4-((6-fluoropyridin-2-yl)methoxy)phenyl)-4-(2-methoxyethoxy)-N-(4-((4-methylpiperazin-1-yl)methyl)phenyl)-7H-pyrrolo[2,3-d]pyrimidin-2-amine]", "IC50": "< 30"}, {"smiles": "COCCOc1nc(Nc2ccc(CN3CCN(C)CC3)cc2)nc2[nH]cc(-c3ccc(OCc4ccc(C)cn4)cc3F)c12", "note": "[Compound 105, 5-(2-fluoro-4-((5-methylpyridin-2-yl)methoxy)phenyl)-4-(2-methoxyethoxy)-N-(4-((4-methylpiperazin-1-yl)methyl)phenyl)-7H-pyrrolo[2,3-d]pyrimidin-2-amine]", "IC50": "< 30"}, {"smiles": "COCCOc1nc(Nc2ccc(CN3CCN(C)CC3)cc2)nc2[nH]cc(-c3ccc(OCc4ncccn4)cc3F)c12", "note": "[Compound 107, 5-(2-fluoro-4-(pyrimidin-2-ylmethoxy)phenyl)-4-(2-methoxyethoxy)-N-(4-((4-methylpiperazin-1-yl)methyl)phenyl)-7H-pyrrolo[2,3-d]pyrimidin-2-amine]", "IC50": "< 30"}, {"smiles": "COCCOc1nc(Nc2ccc(CN3CCN(C)CC3)cc2)nc2[nH]cc(-c3ccc(OCc4ccccn4)cc3)c12", "note": "[Compound 110, 4-(2-methoxyethoxy)-N-(4-((4-methylpiperazin-1-yl)methyl)phenyl)-5-(4-(pyridin-2-ylmethoxy)phenyl)-7H-pyrrolo[2,3-d]pyrimidin-2-amine]", "IC50": "< 30"}, {"smiles": "COCCOc1nc(Nc2ccc(CN3CCC(C)CC3)cc2)nc2[nH]cc(-c3ccc(OCc4ncccc4C)cc3F)c12", "note": "[Compound 111, 5-(2-fluoro-4-((3-methylpyridin-2-yl)methoxy)phenyl)-4-(2-methoxyethoxy)-N-(4-((4-methylpiperidin-1-yl)methyl)phenyl)-7H-pyrrolo[2,3-d]pyrimidin-2-amine]", "IC50": "< 30"}, {"smiles": "CCN1CCN(Cc2ccc(Nc3nc(OCCOC)c4c(-c5ccc(OCc6ncccc6C)cc5F)c[nH]c4n3)cc2)CC1", "note": "[Compound 112, N-(4-((4-ethylpiperazin-1-yl)methyl)phenyl)-5-(2-fluoro-4-((3-methylpyridin-2-yl)methoxy)phenyl)-4-(2-methoxyethoxy)-7H-pyrrolo[2,3-d]pyrimidin-2-amine]", "IC50": "< 30"}]}, {"molecular_target": "Mer kinase (Homo sapiens (Human), UniProt Q12866)", "sequence (Q12866 21-999)": "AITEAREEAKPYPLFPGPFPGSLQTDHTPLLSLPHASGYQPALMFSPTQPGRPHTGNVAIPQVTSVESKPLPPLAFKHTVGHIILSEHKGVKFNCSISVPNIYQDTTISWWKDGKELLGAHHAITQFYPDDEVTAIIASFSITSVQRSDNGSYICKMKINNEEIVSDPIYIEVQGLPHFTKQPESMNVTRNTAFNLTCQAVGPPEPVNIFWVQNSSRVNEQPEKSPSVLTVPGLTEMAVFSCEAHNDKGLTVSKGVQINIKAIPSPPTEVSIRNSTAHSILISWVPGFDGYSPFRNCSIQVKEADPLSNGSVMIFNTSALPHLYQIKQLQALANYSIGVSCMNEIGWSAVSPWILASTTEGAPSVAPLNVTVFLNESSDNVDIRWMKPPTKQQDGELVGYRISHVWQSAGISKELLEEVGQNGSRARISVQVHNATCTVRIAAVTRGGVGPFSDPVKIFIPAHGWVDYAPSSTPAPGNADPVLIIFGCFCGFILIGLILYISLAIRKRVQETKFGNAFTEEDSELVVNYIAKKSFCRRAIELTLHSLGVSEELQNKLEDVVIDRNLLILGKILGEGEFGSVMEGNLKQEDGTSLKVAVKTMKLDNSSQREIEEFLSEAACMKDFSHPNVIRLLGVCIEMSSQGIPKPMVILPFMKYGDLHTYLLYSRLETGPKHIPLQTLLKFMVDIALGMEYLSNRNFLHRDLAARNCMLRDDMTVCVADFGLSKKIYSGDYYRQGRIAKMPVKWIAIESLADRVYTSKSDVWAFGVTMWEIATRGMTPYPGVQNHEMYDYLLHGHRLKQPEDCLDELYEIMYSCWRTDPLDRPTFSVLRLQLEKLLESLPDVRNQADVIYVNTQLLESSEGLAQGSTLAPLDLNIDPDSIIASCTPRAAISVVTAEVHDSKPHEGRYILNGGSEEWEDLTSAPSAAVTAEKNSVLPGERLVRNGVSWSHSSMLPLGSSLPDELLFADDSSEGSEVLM", "assay": "Mer kinase assay (AlphaScreen)", "conditions": "read-out: Mer kinase IC50; activity level class", "units": {"IC50": "nM"}, "values": [{"smiles": "COc1nc(Nc2ccc(CN3CCC(N)CC3)cc2)nc2[nH]cc(-c3ccc(S(=O)(=O)N(C)C)cc3)c12", "note": "[Compound 6, 4-(2-((4-((4-aminopiperidin-1-yl)methyl)phenyl)amino)-4-methoxy-7H-pyrrolo[2,3-d]pyrimidin-5-yl)-N,N-dimethylbenzene-sulfonamide]", "IC50": "> 1000"}]}]}
